Settings: mouse, in vivo

CCCCCCCCCCCCCCCCCCN1C(=CC=CC=CC=CC2=[N+](CCCCCCCCCCCCCCCCCC)c3ccccc3C2(C)C)C(C)(C)c2ccccc21.[I-] [free DIR, 1,1′-Dioctadecyl-3,3,3′,3′-Tetramethylindotricarbo-cyanine Iodide]
IR signal in blood after IV injection: no signal was seen
